Measurements from ChEMBL document CHEMBL2062430, “Set-up of a new series of HDAC inhibitors: the 5,11-dihydrodibenzo[b,e]azepin-6-ones as privileged structures” (Bioorg Med Chem Lett, 2012).

Tests used:
[1] = biological target: T1, Histone deacetylase (Homo sapiens) (UniProt Q13547+O15379+Q9UBN7+Q92769+Q9UQL6+Q8WUI4+Q9BY41+Q96DB2+P56524+Q9UKV0+Q969S8); conditions: HeLa, at 1 µM
Description: Inhibition of HDAC in human HeLa cell extracts using Fluor de Lys as substrate at 1 uM by fluorescence assay

[2] = biological target: T1, Histone deacetylase (Homo sapiens); conditions: HeLa, at 0.1 µM
Description: Inhibition of HDAC in human HeLa cell extracts using Fluor de Lys as substrate at 0.1 uM by fluorescence assay

[3] = biological target: T1, Histone deacetylase (Homo sapiens); conditions: HeLa, at 0.01 µM
Description: Inhibition of HDAC in human HeLa cell extracts using Fluor de Lys as substrate at 0.01 uM by fluorescence assay

[4] = test system: HCT-116; assay: Antiproliferative activity against human HCT116 cells after 5 days by Alamar Blue assay; type: functional, cell-based; conditions: HCT-116, 120 h
[5] = biological target: Histone deacetylase; assay: Inhibition of HDAC in human HeLa cell extracts using Fluor de Lys as substrate by fluorescence assay; type: protein assay

| SMILES | inhibition [1] | inhibition [2] | inhibition [3] | IC50 [4] | IC50 [5] |
| --- | --- | --- | --- | --- | --- |
| O=C(CCCCN1C(=O)c2ccccc2Cc2ccccc21)NO | 29% | < 20% | < 20% |  |  |
| O=C(CCCN1C(=O)c2ccccc2Cc2ccccc21)NO | < 20% | < 20% | < 20% |  |  |
| O=C(CCCCCN1C(=O)c2ccccc2C(O)c2ccccc21)NO (centres undefined) | 81% | 58% | 21% | 2 µM | 0.06 µM |
| O=C(CCCCCN1C(=O)c2ccccc2C(F)c2ccccc21)NO (centres undefined) | 84% | 62% | < 20% | 1.6 µM | 0.053 µM |
| O=C(CCCCCN1C(=O)c2ccccc2Cc2ccccc21)NO | 84% | 67% | 21% | 0.71 µM | 0.042 µM |
| COC1(OC)c2ccccc2C(=O)N(CCCCCC(=O)NO)c2ccccc21 | 42% | < 20% | < 20% |  |  |
| O=C(CCCCCN1C(=O)c2ccccc2C(F)(F)c2ccccc21)NO | 78% | 50% | < 20% | 0.6 µM | 0.111 µM |
| O=C(CCCCCn1c(=O)c2ccccc2c(=O)c2ccccc21)NO | 77% | 47% | 11% | > 1 µM | 0.153 µM |
